# From US6737383B1, “Herbicidal oxadiazolidines” (priority 1999, dated 2004)
# Tests used:
# bedstraw = assay: Test B pre/postemergence bedstraw; format: in vivo, Galium aparine; settings: Preemergence; for Bedstraw plant response rating: scale 0 to 10, 0 is no effect, 10 is complete control
# Method in brief: (§1)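 Response is a visual 0-to-10 score relative to untreated plants, where 0 means no effect and 10 means complete control, taken twelve to sixteen days after application. Treatments went onto soil at planting and onto foliage of 1- to 4-leaf plants, using a surfactant-containing non-phytotoxic solvent.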
# blackgrass = assay: Test B pre/postemergence blackgrass; format: in vivo, Alopecurus myosuroides
# Method in brief: as §1
# surinam grass = assay: Test B pre/postemergence surinam grass; format: in vivo, Brachiaria decumbens
# Method in brief: as §1
# cocklebur = assay: Test B pre/postemergence cocklebur; format: in vivo, Xanthium strumarium
# Method in brief: as §1
# corn = assay: Test B pre/postemergence corn; format: in vivo, Zea mays
# Method in brief: as §1
# crabgrass = assay: Test B pre/postemergence crabgrass; format: in vivo, Digitaria sanguinalis
# Method in brief: as §1
# giant foxtail = assay: Test B pre/postemergence giant foxtail; format: in vivo, Setaria faberii
# Method in brief: as §1
# morningglory = assay: Test B pre/postemergence morningglory; format: in vivo, Ipomoea hederacea
# Method in brief: as §1
# pigweed = assay: Test B pre/postemergence pigweed; format: in vivo, Amaranthus retroflexus
# Method in brief: as §1
# rape = assay: Test B pre/postemergence rape; format: in vivo, Brassica napus
# Method in brief: as §1
# soybean = assay: Test B pre/postemergence soybean; format: in vivo, Glycine max
# Method in brief: as §1
# sugar beet = assay: Test B pre/postemergence sugar beet; format: in vivo, Beta vulgaris
# Method in brief: as §1
# velvetleaf = assay: Test B pre/postemergence velvetleaf; format: in vivo, Abutilon theophrasti
# Method in brief: as §1
# wheat = assay: Test B pre/postemergence wheat; format: in vivo, Triticum aestivum
# Method in brief: as §1
# wild oat = assay: Test B pre/postemergence wild oat; format: in vivo, Avena fatua
# Method in brief: as §1
# purple nutsedge = assay: Test B pre/postemergence purple nutsedge; format: in vivo, Cyperus rotundus
# Method in brief: as §1
# [1] = Postemergence, Rate 62 g/ha, scale of 0 to 10, 0 is no effect, 10 is complete control
# [2] = Postemergence, Rate 125 g/ha, scale 0 to 10, 0 is no effect, 10 is complete control
# [3] = Postemergence, Rate 250 g/ha, scale 0 to 10
# [4] = Postemergence, Rate 500 g/ha, scale 0 to 10, 0 is no effect, 10 is complete control
# [5] = Preemergence, Rate 62 g/ha, scale of 0 to 10 where 0 is no effect and 10 is complete control
# [6] = Preemergence, Rate 125 g/ha, scale 0 to 10, 0 is no effect, 10 is complete control
# [7] = Preemergence, Rate 250 g/ha, scale 0 to 10, 0 is no effect, 10 is complete control
# [8] = Preemergence, Rate 500 g/ha, scale of 0 to 10 where 0 is no effect and 10 is complete control
compound,measurement,setting,value
COCCOCn1c(=O)on(C(=O)N(c2ccc(F)cc2F)C(C)C)c1=O [Compound 505],"Plant response rating, Bedstraw","bedstraw; Rate 62 g/ha, scale of 0 to 10 where 0 is no effect and 10 is complete control",0
same,Bedstraw plant response rating,bedstraw; Rate 125 g/ha,0
same,Bedstraw plant response rating,bedstraw; Rate 250 g/ha,8
same,Bedstraw plant response rating,bedstraw; Rate 500 g/ha,9
same,Blackgrass plant response rating,blackgrass; [1],2
same,Blackgrass plant response rating,blackgrass; [2],4
same,Blackgrass plant response rating,blackgrass; [3],7
same,"Plant response rating, Blackgrass",blackgrass; [4],7
same,"Plant response rating, Blackgrass",blackgrass; [5],0
same,Blackgrass plant response rating,blackgrass; [6],6
same,Blackgrass plant response rating,blackgrass; [7],7
same,Blackgrass plant response rating,blackgrass; [8],6
same,B. signalgrass plant response rating,surinam grass; [1],0
same,B. signalgrass plant response rating,surinam grass; [2],3
same,B. signalgrass plant response rating,"surinam grass; Postemergence, Rate 250 g/ha, scale 0 to 10, 0 no effect, 10 complete control",8
same,"Plant response rating, B. signalgrass",surinam grass; [4],8
same,"Plant response rating, B. signalgrass",surinam grass; [5],0
same,B. signalgrass plant response rating,surinam grass; [7],2
same,B. signalgrass plant response rating,"surinam grass; Preemergence, Rate 500 g/ha, scale 0 to 10, 0 is no effect, 10 is complete control",6
same,Cocklebur plant response rating,cocklebur; [1],0
same,Cocklebur plant response rating,cocklebur; [2],0
same,Cocklebur plant response rating,cocklebur; [3],0
same,"Plant response rating, Cocklebur",cocklebur; [4],4
same,"Plant response rating, Cocklebur",cocklebur; [5],0
same,Cocklebur plant response rating,cocklebur; [6],0
same,Cocklebur plant response rating,cocklebur; [7],0
same,Cocklebur plant response rating,cocklebur; [8],2
same,Corn plant response rating,corn; [1],0
same,Corn plant response rating,corn; [2],3
same,Corn plant response rating,corn; [3],6
same,"Plant response rating, Corn",corn; [4],6
same,"Plant response rating, Corn",corn; [5],2
same,Corn plant response rating,corn; [6],2
same,Corn plant response rating,corn; [8],6
same,Crabgrass plant response rating,crabgrass; [1],7
same,Crabgrass plant response rating,crabgrass; [2],7
same,Crabgrass plant response rating,crabgrass; [3],9
same,"Plant response rating, Crabgrass",crabgrass; [4],9
same,Crabgrass plant response rating,crabgrass; [6],6
same,Crabgrass plant response rating,crabgrass; [8],8
same,Giant foxtail plant response rating,giant foxtail; [1],8
same,Giant foxtail plant response rating,giant foxtail; [2],8
same,"Plant response rating, Giant foxtail",giant foxtail; [4],9
same,"Plant response rating, Giant foxtail",giant foxtail; [5],9
same,Giant foxtail plant response rating,giant foxtail; [6],9
same,Giant foxtail plant response rating,giant foxtail; [8],10
same,Morningglory plant response rating,morningglory; [1],5
same,Morningglory plant response rating,morningglory; [2],5
same,"Plant response rating, Morningglory",morningglory; [4],7
same,"Plant response rating, Morningglory",morningglory; [5],0
same,Morningglory plant response rating,morningglory; [6],0
same,Morningglory plant response rating,morningglory; [8],3
same,Redroot pigweed plant response rating,pigweed; [1],0
same,Redroot pigweed plant response rating,pigweed; [2],0
same,"Plant response rating, Redroot pigweed",pigweed; [4],9
same,"Plant response rating, Redroot pigweed",pigweed; [5],9
same,Redroot pigweed plant response rating,pigweed; [6],10
same,Redroot pigweed plant response rating,pigweed; [8],10
same,Rape plant response rating,rape; [1],0
same,Rape plant response rating,rape; [2],0
same,"Plant response rating, Rape",rape; [4],2
same,"Plant response rating, Rape",rape; [5],4
same,Rape plant response rating,rape; [6],4
same,Rape plant response rating,rape; [8],9
same,Soybean plant response rating,soybean; [1],1
same,Soybean plant response rating,soybean; [2],2
same,"Plant response rating, Soybean",soybean; [4],5
same,"Plant response rating, Soybean",soybean; [5],0
same,Soybean plant response rating,soybean; [6],0
same,Soybean plant response rating,soybean; [8],5
same,Sugarbeets plant response rating,sugar beet; [1],3
same,Sugarbeets plant response rating,sugar beet; [2],5
same,"Plant response rating, Sugarbeets",sugar beet; [4],9
same,"Plant response rating, Sugarbeets",sugar beet; [5],3
same,Sugarbeets plant response rating,sugar beet; [6],3
same,Sugarbeets plant response rating,sugar beet; [8],8
same,Velvetleaf plant response rating,velvetleaf; [1],0
same,Velvetleaf plant response rating,velvetleaf; [2],0
same,"Plant response rating, Velvetleaf",velvetleaf; [4],4
same,"Plant response rating, Velvetleaf",velvetleaf; [5],0
same,Velvetleaf plant response rating,velvetleaf; [6],2
same,Velvetleaf plant response rating,velvetleaf; [8],10
same,Wheat plant response rating,wheat; [1],0
same,Wheat plant response rating,wheat; [2],2
same,"Plant response rating, Wheat",wheat; [4],4
same,"Plant response rating, Wheat",wheat; [5],3
same,Wheat plant response rating,wheat; [6],7
same,Wheat plant response rating,wheat; [8],8
same,Wild oats plant response rating,wild oat; [1],0
same,Wild oats plant response rating,wild oat; [2],2
same,"Plant response rating, Wild oats",wild oat; [4],3
same,"Plant response rating, Wild oats",wild oat; [5],2
same,Wild oats plant response rating,wild oat; [6],2
same,Wild oats plant response rating,wild oat; [8],9
same,Nutsedge plant response rating,purple nutsedge; [1],0
same,Nutsedge plant response rating,purple nutsedge; [2],2
same,"Plant response rating, Nutsedge",purple nutsedge; [4],2
same,"Plant response rating, Nutsedge",purple nutsedge; [5],3
same,Nutsedge plant response rating,purple nutsedge; [6],10
same,Nutsedge plant response rating,purple nutsedge; [8],8
